Common to all, as to assay type: biochemical
Experiment [1] has as its target T1, human Itk kinase (Homo sapiens, UniProt Q08881).
T1 sequence (Q08881 1-620): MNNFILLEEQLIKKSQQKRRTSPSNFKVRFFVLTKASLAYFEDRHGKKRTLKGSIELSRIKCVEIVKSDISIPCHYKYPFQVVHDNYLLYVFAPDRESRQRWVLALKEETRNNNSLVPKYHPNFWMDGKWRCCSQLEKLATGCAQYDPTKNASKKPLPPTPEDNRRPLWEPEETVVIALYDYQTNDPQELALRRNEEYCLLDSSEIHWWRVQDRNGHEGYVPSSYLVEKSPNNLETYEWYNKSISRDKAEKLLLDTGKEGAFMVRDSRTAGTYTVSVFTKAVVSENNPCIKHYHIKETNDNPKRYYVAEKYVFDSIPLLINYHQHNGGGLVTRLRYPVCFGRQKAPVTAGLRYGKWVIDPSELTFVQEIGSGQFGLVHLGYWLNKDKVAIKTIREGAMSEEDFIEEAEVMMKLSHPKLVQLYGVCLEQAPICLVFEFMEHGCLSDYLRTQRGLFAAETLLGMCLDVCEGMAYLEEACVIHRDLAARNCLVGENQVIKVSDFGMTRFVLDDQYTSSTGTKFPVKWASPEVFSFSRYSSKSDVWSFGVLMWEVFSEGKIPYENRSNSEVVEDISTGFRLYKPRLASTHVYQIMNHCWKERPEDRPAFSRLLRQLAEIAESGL
Nature of the experiment: Itk Inhibition Assay (radioactivity-based or spectrophotometric). To be noted: inhibition of human Itk kinase. As for the experimental part:
The compounds of the present invention can be evaluated as inhibitors of human Itk kinase using either a radioactivity-based or a spectrophotometric assay. In general, compounds of the invention, including compounds in Table 1, are effective for the inhibition of Itk. Specifically, compounds I.1 to I.5 and compound I.7 have a Ki value of <1 μM and compounds I.6 and I.8 have a Ki value of >1 μM.
Assays were carried out in a mixture of 100 mM HEPES (pH 7.5), 10 mM MgCl2, 25 mM NaCl, 0.01% BSA and 1 mM DTT. Final substrate concentrations were 15 μM [γ-^33P]ATP (400 μCi ^33P ATP/μmol ATP, Amersham Pharmacia Biotech/Sigma Chemicals) and 2 μM peptide (SAM68 protein Δ332-443). Assays were carried out at 25° C. in the presence of 30 nM Itk. An assay stock buffer solution was prepared containing all of the reagents listed above, with the exception of ATP and the test compound of interest. 50 μL of the stock solution was placed in a 96 well plate followed by addition of 1.5 μL of DMSO stock containing serial dilutions of the test compound (typically starting from a final concentration of 15 μM with 2-fold serial dilutions) in duplicate (final DMSO concentration 1.5%). The plate was pre-incubated for 10 minutes at 25° C. and the reaction initiated by addition of 50 μL [γ-^33P]ATP (final concentration 15 μM).
The reaction was stopped after 10 minutes by the addition of 50 μL of a TCA/ATP mixture (20% TCA, 0.4 mM ATP). A Unifilter GF/C 96 well plate (Perkin Elmer Life Sciences, Cat no. 6005174) was pretreated with 5 μL Milli Q water prior to the addition of the entire reaction mixture (150 μL). […]
IC50 data were calculated from non-linear regression analysis of the initial rate data using the Prism software package (GraphPad Prism version 3.0cx for Macintosh, GraphPad Software, San Diego, Calif., USA). […]
Ki(app) data were calculated from non-linear regression analysis of the initial rate data using the Prism software package (GraphPad Prism version 3.0cx for Macintosh, GraphPad Software, San Diego, Calif., USA). […]

In experiment [2] the target is T2, FLT-3 (Homo sapiens, UniProt P36888).
T2 sequence (P36888 27-993): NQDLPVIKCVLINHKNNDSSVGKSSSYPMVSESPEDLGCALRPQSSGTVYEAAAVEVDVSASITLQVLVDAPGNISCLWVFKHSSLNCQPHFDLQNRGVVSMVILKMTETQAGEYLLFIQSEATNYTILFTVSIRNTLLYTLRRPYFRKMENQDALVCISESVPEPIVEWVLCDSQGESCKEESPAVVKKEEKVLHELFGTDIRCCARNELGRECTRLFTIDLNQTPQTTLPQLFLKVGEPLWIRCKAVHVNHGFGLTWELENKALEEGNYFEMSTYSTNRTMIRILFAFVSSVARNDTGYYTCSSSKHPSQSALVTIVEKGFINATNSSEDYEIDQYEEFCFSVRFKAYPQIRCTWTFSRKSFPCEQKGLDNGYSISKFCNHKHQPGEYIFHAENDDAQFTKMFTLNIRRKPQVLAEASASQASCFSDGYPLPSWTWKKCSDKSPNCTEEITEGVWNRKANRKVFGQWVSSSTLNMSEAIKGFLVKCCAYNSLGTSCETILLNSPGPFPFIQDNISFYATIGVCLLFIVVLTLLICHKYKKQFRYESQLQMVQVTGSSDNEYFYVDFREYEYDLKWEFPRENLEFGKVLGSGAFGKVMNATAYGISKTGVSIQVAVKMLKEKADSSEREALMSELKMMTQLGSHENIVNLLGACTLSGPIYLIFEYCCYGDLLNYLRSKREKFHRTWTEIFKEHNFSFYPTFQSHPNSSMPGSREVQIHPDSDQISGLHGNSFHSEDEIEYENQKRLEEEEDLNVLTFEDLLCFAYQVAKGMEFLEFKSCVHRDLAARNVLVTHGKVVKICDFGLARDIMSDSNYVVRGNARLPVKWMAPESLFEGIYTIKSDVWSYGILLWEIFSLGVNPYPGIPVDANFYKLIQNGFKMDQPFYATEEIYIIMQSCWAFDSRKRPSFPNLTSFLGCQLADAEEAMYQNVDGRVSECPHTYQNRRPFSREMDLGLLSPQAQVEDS
Nature of the experiment: FLT-3 kinase inhibition (assays similar to the ones described). As for the experimental part:
(§1) Compound I.9 was tested in assays similar to the ones described herein and found to inhibit FLT-3, JAK2, and JAK3 kinases.

Experiment [3] deals with JAK2 (Homo sapiens, UniProt O60674). Nature of the experiment: JAK2 kinase inhibition (assays similar to the ones described). As for the experimental part:
as §1

In experiment [4] the target is T3, JAK3 (Homo sapiens, UniProt P52333).
T3 sequence (P52333 1-1124): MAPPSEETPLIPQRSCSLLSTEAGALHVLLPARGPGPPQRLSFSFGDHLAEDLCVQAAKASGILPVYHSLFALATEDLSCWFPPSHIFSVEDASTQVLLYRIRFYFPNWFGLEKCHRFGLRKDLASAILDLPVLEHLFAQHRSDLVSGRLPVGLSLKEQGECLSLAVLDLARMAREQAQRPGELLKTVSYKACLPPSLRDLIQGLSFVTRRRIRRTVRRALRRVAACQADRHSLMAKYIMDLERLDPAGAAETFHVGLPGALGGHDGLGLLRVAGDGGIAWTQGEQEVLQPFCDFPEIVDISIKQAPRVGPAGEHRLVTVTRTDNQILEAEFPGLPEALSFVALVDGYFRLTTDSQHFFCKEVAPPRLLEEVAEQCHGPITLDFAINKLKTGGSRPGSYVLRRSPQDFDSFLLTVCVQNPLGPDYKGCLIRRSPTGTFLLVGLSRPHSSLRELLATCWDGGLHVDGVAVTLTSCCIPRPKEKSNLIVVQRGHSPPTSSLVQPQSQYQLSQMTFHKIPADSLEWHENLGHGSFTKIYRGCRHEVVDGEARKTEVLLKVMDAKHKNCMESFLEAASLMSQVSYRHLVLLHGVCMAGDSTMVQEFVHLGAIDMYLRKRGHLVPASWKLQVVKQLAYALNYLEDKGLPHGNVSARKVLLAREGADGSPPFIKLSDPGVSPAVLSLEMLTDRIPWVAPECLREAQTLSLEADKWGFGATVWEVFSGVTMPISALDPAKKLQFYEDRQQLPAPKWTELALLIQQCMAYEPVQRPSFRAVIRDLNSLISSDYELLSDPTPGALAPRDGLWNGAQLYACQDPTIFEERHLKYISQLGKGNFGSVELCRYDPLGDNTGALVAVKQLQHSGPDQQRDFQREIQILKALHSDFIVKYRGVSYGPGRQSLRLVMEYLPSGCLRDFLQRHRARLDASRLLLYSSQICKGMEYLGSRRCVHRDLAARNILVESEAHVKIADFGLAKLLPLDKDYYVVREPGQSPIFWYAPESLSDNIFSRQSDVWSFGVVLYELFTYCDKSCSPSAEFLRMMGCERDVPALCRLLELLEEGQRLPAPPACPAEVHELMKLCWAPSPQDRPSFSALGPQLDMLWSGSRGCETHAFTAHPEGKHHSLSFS
The experiment is described as follows: JAK3 kinase inhibition (assays similar to the ones described). As for the experimental part: as §1

By Ki is commonly meant the dissociation constant of the complex between target and ligand, obtained from inhibition or displacement.

JAK2, sequence (O60674 whole entry, species assumed): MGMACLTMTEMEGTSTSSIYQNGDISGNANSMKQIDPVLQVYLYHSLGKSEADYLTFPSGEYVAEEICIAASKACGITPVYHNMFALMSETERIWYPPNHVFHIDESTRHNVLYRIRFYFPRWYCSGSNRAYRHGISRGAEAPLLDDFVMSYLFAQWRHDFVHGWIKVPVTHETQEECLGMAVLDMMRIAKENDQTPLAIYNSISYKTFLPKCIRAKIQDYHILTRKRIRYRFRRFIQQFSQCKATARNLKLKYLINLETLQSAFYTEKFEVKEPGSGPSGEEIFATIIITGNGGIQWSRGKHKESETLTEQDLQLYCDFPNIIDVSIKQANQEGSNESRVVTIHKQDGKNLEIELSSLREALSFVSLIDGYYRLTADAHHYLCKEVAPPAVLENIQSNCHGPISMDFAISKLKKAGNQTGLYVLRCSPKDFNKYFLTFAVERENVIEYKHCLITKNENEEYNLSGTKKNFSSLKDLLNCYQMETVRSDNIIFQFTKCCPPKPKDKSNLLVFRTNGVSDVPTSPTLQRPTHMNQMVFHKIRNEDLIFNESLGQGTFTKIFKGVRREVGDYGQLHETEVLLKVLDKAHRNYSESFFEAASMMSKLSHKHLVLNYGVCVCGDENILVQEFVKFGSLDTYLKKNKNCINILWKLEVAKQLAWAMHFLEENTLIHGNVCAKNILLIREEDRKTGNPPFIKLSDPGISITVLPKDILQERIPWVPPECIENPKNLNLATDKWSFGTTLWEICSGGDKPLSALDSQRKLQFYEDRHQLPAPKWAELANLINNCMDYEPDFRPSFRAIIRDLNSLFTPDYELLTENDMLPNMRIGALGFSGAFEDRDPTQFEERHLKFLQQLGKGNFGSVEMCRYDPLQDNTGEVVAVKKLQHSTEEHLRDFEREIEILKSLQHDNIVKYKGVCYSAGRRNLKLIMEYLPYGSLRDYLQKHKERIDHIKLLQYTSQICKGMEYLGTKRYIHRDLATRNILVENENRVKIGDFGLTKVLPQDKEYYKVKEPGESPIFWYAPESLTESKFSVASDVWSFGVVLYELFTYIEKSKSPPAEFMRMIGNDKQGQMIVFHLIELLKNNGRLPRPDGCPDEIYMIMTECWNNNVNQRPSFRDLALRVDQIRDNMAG

Turning to `CNc1cncc(-c2c[nH]c(=O)c(/C=C3\C(=O)Nc4ccccc43)c2)n1` [I.6, 3-((1,2-dihydro-5-(6-(methylamino)pyrazin-2-yl)-2-oxopyridin-3-yl)methylene)indolin-2-one], the Ki in experiment [1] is over 1000 nM. In the case of `CNc1cncc(-c2c[nH]c(=O)c(/C=C/c3cc(OC)ccc3[N+](=O)[O-])c2)n1` [I.8], the Ki in experiment [1] was over 1000 nM.

As for `O=c1[nH]cc(-c2ccccc2Cl)cc1/C=C/c1cnc2ccccn12` [I.9], the “inhibition of FLT-3 kinase (in words)” value in experiment [2] is on record as “inhibit”. Also, the “inhibition of JAK2 kinase (in words)” value in experiment [3] is listed as “inhibit”. Besides, the “inhibition of JAK3 kinase (in words)” value in experiment [4] is reported as “inhibit”. Regarding `CNc1cncc(-c2c[nH]c(=O)c(/C=C/c3cc(CN4CCN(S(C)(=O)=O)CC4)ccc3[N+](=O)[O-])c2)n1` [I.7], the Ki in experiment [1] was under 1000 nM.

The values are drawn from patent publication US7786120B2, “Pyridones useful as inhibitors of kinases” (Vertex Pharmaceuticals Incorporated, priority 2005, dated 2010).
